The assay deals with T1, human mAChR M1 (Homo sapiens, UniProt P11229).
T1 sequence (P11229 1-460): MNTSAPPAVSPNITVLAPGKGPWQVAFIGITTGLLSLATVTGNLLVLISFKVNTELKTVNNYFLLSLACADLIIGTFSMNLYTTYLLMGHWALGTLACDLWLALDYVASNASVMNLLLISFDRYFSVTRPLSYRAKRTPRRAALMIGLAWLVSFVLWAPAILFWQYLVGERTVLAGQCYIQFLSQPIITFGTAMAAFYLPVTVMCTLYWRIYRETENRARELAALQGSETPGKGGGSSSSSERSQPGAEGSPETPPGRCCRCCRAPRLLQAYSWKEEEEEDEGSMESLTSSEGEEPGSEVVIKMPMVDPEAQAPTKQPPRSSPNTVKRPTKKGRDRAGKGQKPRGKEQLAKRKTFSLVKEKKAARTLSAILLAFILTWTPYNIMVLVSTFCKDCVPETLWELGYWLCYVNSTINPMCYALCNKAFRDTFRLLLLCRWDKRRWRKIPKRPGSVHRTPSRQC
Kind of assay: mAChR M1 cell-based functional assay (calcium mobilization, PAM activity). To be noted: CHO-K1 cells expressing hM1, calcium flux (Fluo-4); for EC50: concentration-dependent increase in the EC20 acetylcholine response; for Emax: potentiation of EC20 acetylcholine response. An excerpt:
Chinese hamster ovary (CHO-K1) cells stably expressing rat (r)M1 were purchased from the American Type Culture Collection and cultured according to their indicated protocol. CHO cells stably expressing human (h)M2, hM3, and hM5 were described previously (Levey, et al., 1991); hM1 and hM4 cDNAs were purchased from Missouri S&T cDNA Resource; rM4 cDNA was provided by T. I. Bonner (National Institutes of Health, Bethesda, Md.). rM2 and rM3 were cloned from a rat brain cDNA library and sequence verified. hM1, rM2, rM3, hM4, and rM4 cDNAs were used to stably transfect CHO-K1 cells purchased from the American Type Culture Collection using Lipofectamine 2000. To make stable rM2, hM2, rM3, hM4, and rM4 cell lines for use in calcium mobilization assays, these cells also were stably transfected with a chimeric G-protein (Gqi5) (provided by B. R. Conklin, University of California, San Francisco) using Lipofectamine 2000. rM1, hM1, rM3, hM3, rM5, and hM5 cells were grown in Ham's F-12 medium containing 10% heat-inactivated fetal bovine serum (FBS), 20 mM HEPES, and 50 μg/mL G418 sulfate. rM2-Gqi5, hM2-Gqi5, and hM4-Gqi5 cells were grown in the same medium also containing 500 μg/mL Hygromycin B. Stable rM4-Gqi5 cells were grown in DMEM containing 10% heat-inactivated FBS, 20 mM HEPES, 400 μg/mL G418 sulfate, and 500 μg/mL Hygromycin B.
For high throughput measurement of agonist-evoked increases in intracellular calcium, CHO-K1 cells stably expressing muscarinic receptors were plated in growth medium lacking G418 and hygromycin at 15,000 cells/20 μL/well in Greiner 384-well black-walled, tissue culture (TC)-treated, clear-bottom plates (VWR). Cells were incubated overnight at 37° C. and 5% CO2. The next day, cells were washed using an ELX 405 (BioTek) with four washes (80 μL) of assay buffer then aspirated to 20 μL. Next, 20 μL of 16 μM Fluo-4/acetoxymethyl ester (Invitrogen, Carlsbad, Calif.) prepared as a 2.3 mM stock in DMSO and mixed in a 1:1 ratio with 10% (w/v) Pluronic F-127 and diluted in assay buffer was added to the wells and the cell plates were incubated for 50 min at 37° C. and 5% CO2. Dye was removed by washing with the ELX 405 (four 80 μL washes of assay buffer) then aspirated to 20 μL. Compound master plates were formatted in an 11 point CRC format (1:3 dilutions) in 100% DMSO with a starting concentration of 10 mM using the BRAVO liquid handler (Agilent). Test compound CRCs were then transferred to daughter plates (240 nL) using the Echo acoustic plate reformatter (Labcyte, Sunnyvale, Calif.) and then diluted into assay buffer (40 μL) to a 2× stock using a Thermo Fisher Combi (Thermo Fisher Scientific, Waltham, Mass.).
Calcium flux was measured using the Functional Drug Screening System (FDSS) 6000 (Hamamatsu Corporation, Tokyo, Japan) as an increase in the fluorescent static ratio. Compounds were applied to cells (20 μL, 2×) using the automated system of the FDSS 6000 at 4 s into the 300 s protocol and the data were collected at 1 Hz. At 144 s into the 300s protocol, 10 μL of an EC20 concentration of the muscarinic receptor agonist acetylcholine was added (5×), followed by the addition of 12 μL an EC80 concentration of acetylcholine at the 230 s time point (5×). Agonist activity was analyzed as a concentration-dependent increase in calcium mobilization upon compound addition. Emax values for agonist activity are expressed relative to the maximum for acetylcholine. Positive allosteric modulator activity was analyzed as a concentration-dependent increase in the EC20 acetylcholine response. Antagonist activity was analyzed as a concentration-dependent decrease in the EC80 acetylcholine response. Concentration-response curves were generated using a four-parameter logistical equation in XLfit curve fitting software (IDBS, Bridgewater, N.J.) for Excel (Microsoft, Redmond, Wash.) or Prism (GraphPad Software, Inc., San Diego, Calif.). […]

Consider 18 compounds from patent US20200131180A1, “POSITIVE ALLOSTERIC MODULATORS OF THE MUSCARINIC ACETYLCHOLINE RECEPTOR M1” (Vanderbilt University, priority 2018, published 2020).

Regarding `O=C(N[C@H]1CCCC[C@@H]1O)c1cc(Cc2ccc(-n3cccn3)cc2)cc2ncnn12` [compound 20, N-[(1S,2S)-2-hydroxycyclohexyl]-7-[(4-pyrazol-1-ylphenyl)methyl]-[1,2,4]triazolo[1,5-a]pyridine-5-carboxamide], the EC50 was found to be 1190 nM and the Emax came to 82%.

As for `Cc1cn2cc(Cc3ccc(-c4ccn(C)n4)cc3)cc(C(=O)N[C@H]3CCOC[C@@H]3O)c2n1` [compound 21, N-[(3R,4S)-3-hydroxytetrahydropyran-4-yl]-2-methyl-6-[[4-(1-methylpyrazol-3-yl)phenyl]methyl]imidazo[1,2-a]pyridine-8-carboxamide], the half-maximal effective concentration (EC50) is 2240 nM and the Emax was 43%.

Turning to `O=C(N[C@H]1CCCC[C@@H]1O)c1cc(Cc2ccc(-n3cccn3)cc2)cn2ccnc12` [compound 22, N-[(1S,2S)-2-hydroxycyclohexyl]-6-[(4-pyrazol-1-ylphenyl)methyl]imidazo[1,2-a]pyridine-8-carboxamide], the EC50 is 610 nM and the Emax was found to be 84%.

For `O=C(N[C@H]1CCOC[C@@H]1O)c1cc(Cc2ccc(-n3cccn3)cc2)cn2ccnc12` [compound 23, N-[(3R,4S)-3-hydroxytetrahydropyran-4-yl]-6-[(4-pyrazol-1-ylphenyl)methyl]imidazo[1,2-a]pyridine-8-carboxamide], the EC50 turned out to be 341 nM and the Emax is 82%.

As for `O=C(N[C@H]1CCC[C@@H]1O)c1cc(Cc2ccc(-n3cccn3)cc2)cn2ccnc12` [compound 24, N-[(1S,2S)-2-hydroxycyclopentyl]-6-[(4-pyrazol-1-ylphenyl)methyl]imidazo[1,2-a]pyridine-8-carboxamide], the EC50 turned out to be 2140 nM and the Emax was 76%.

Turning to `Cn1ccc(-c2ccc(Cc3cc(C(=O)N[C@H]4CCCC[C@@H]4O)c4nccn4c3)cn2)n1` [compound 25, N-[(1S,2S)-2-hydroxycyclohexyl]-6-[[6-(1-methylpyrazol-3-yl)-3-pyridyl]methyl]imidazo[1,2-a]pyridine-8-carboxamide], the EC50 came to 904 nM and the Emax stood at 83%.

With `Cn1ccc(-c2ccc(Cc3cc(C(=O)N[C@H]4CCOC[C@@H]4O)c4nccn4c3)cn2)n1` [compound 26, N-[(3R,4S)-3-hydroxytetrahydropyran-4-yl]-6-[[6-(1-methylpyrazol-3-yl)-3-pyridyl]methyl]imidazo[1,2-a]pyridine-8-carboxamide], the EC50 amounted to 4350 nM and the Emax turned out to be 79%.

With `Cn1ccc(-c2ccc(Cc3cc(C(=O)N[C@H]4CCOC[C@@H]4O)c4ncnn4c3)cn2)n1` [compound 27, N-[(3R,4S)-3-hydroxytetrahydropyran-4-yl]-6-[[6-(1-methylpyrazol-3-yl)-3-pyridyl]methyl]-[1,2,4]triazolo[1,5-a]pyridine-8-carboxamide], the EC50 was 7980 nM and the Emax is 78%.

With `Cn1cc(-c2ccc(Cc3cc(C(=O)N[C@H]4CCOC[C@@H]4O)c4ncnn4c3)cc2)cn1` [compound 28, N-[(3R,4S)-3-hydroxytetrahydropyran-4-yl]-6-[[4-(1-methylpyrazol-4-yl)phenyl]methyl]-[1,2,4]triazolo[1,5-a]pyridine-8-carboxamide], the 50% effective concentration (EC50) was found to be 1120 nM and the Emax came to 85%.

Regarding `Cc1nc(-c2ccc(Cc3cc(C(=O)N[C@H]4CCOC[C@@H]4O)c4ncnn4c3)cc2)co1` [compound 29, N-[(3R,4S)-3-hydroxytetrahydropyran-4-yl]-6-[[4-(2-methyloxazol-4-yl)phenyl]methyl]-[1,2,4]triazolo[1,5-a]pyridine-8-carboxamide], the EC50 was 2550 nM and the Emax came to 82%.

Regarding `O=C(N[C@H]1CCOC[C@@H]1O)c1cc(Cc2ccc(-n3cccn3)cc2)cn2ncnc12` [compound 30, N-[(3R,4S)-3-hydroxytetrahydropyran-4-yl]-6-[(4-pyrazol-1-ylphenyl)methyl]-[1,2,4]triazolo[1,5-a]pyridine-8-carboxamide], the EC50 was 1270 nM and the Emax came out at 85%.

Consider `Cn1cc(-c2ccc(Cc3cc(C(=O)N[C@H]4CCCC[C@@H]4O)c4ncnn4c3)cc2)cn1` [compound 31, N-[(1S,2S)-2-hydroxycyclohexyl]-6-[[4-(1-methylpyrazol-4-yl)phenyl]methyl]-[1,2,4]triazolo[1,5-a]pyridine-8-carboxamide], for which the EC50 was determined as 739 nM and the Emax was 89%.

Take `Cc1nc(-c2ccc(Cc3cc(C(=O)N[C@H]4CCCC[C@@H]4O)c4ncnn4c3)cc2)co1` [compound 32, N-[(1S,2S)-2-hydroxycyclohexyl]-6-[[4-(2-methyloxazol-4-yl)phenyl]methyl]-[1,2,4]triazolo[1,5-a]pyridine-8-carboxamide]: the EC50 was found to be 1430 nM and the Emax is 87%.

As for `O=C(N[C@H]1CCCC[C@@H]1O)c1cc(Cc2ccc(-n3cccn3)cc2)cn2ncnc12` [compound 33, N-[(1S,2S)-2-hydroxycyclohexyl]-6-[(4-pyrazol-1-ylphenyl)methyl]-[1,2,4]triazolo[1,5-a]pyridine-8-carboxamide], the EC50 amounted to 604 nM and the Emax stood at 87%.

Turning to `Cn1cc(-c2ccc(Cc3cc(C(=O)NC4CCOCC4)c4ncnn4c3)cc2)cn1` [compound 34, 6-[[4-(1-methylpyrazol-4-yl)phenyl]methyl]-N-tetrahydropyran-4-yl-[1,2,4]triazolo[1,5-a]pyridine-8-carboxamide], the EC50 worked out at 3690 nM and the Emax stood at 35%.

On to `Cc1nc(-c2ccc(Cc3cc(C(=O)NC4CCOCC4)c4ncnn4c3)cc2)co1` [compound 35, 6-[[4-(2-methyloxazol-4-yl)phenyl]methyl]-N-tetrahydropyran-4-yl-[1,2,4]triazolo[1,5-a]pyridine-8-carboxamide], for which the EC50 came out at 9360 nM and the Emax worked out at 31%.

As for `O=C(NC1CCOCC1)c1cc(Cc2ccc(-n3cccn3)cc2)cn2ncnc12` [compound 36, 6-[(4-pyrazol-1-ylphenyl)methyl]-N-tetrahydropyran-4-yl-[1,2,4]triazolo[1,5-a]pyridine-8-carboxamide], the Emax was found to be 47%.

As for `Cn1ccc(-c2ccc(Cc3cc(C(=O)N[C@H]4CCCC[C@@H]4O)c4ncnn4c3)cn2)n1` [compound 37, N-[(1S,2S)-2-hydroxycyclohexyl]-6-[[6-(1-methylpyrazol-3-yl)-3-pyridyl]methyl]-[1,2,4]triazolo[1,5-a]pyridine-8-carboxamide], the EC50 is 3540 nM and the Emax was 83%.

A word on the EC50: it is the concentration needed to bring the measured effect to its halfway point. In general, Emax refers to the maximal effect, on the per cent scale that the assay sets.
